# Data published in PubChem BioAssay (NCI).
#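 Growth conditions: 96-well plates. Treatment: test compound, 48 hours, 5 concentrations. Analysis: linear interpolation between bracketing concentrations; unreached endpoints set to highest concentration. TGI marks complete inhibition of growth.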
# Key:
# Test in all cases: NCI tumour cell line growth inhibition, 48 h
# [1] = system: SK-MEL-5 melanoma
# [2] = system: XF 498 CNS
# [3] = system: SF-295 CNS
# [4] = system: M14 melanoma
# [5] = system: DLD-1 colon
# [6] = system: KM12 colon
# [7] = system: RPMI-8226 leukemia
# [8] = system: CCRF-CEM leukemia
# [9] = system: NCI-H23 lung
# [10] = system: DMS 114 small cell lung
# [11] = system: K-562 leukemia
# [12] = system: UACC-257 melanoma
# [13] = system: EKVX NSCLC
# [14] = system: SK-MEL-28 melanoma
# [15] = system: UACC-62 melanoma
# [16] = system: LOX IMVI melanoma
# [17] = system: HL-60(TB) leukemia
# [18] = system: M19-MEL melanoma
# [19] = system: A549 NSCLC
# [20] = system: RXF 393 renal
# [21] = system: NCI-H460 lung
# [22] = system: IGROV1 ovarian
# [23] = system: 786-0 renal
# [24] = system: SNB-19 CNS
# [25] = system: HCT-116 colon
# [26] = system: SK-MEL-2 melanoma
# [27] = system: U251 CNS
# [28] = system: DMS 273 small cell lung
# [29] = system: OVCAR-8 ovarian
# [30] = system: ACHN renal
# [31] = system: SW-620 colon
# [32] = system: NCI-H226 lung
# [33] = system: HOP-18 NSCLC
# [34] = system: UO-31 renal
# [35] = system: MALME-3M melanoma
# [36] = system: OVCAR-3 ovarian
# [37] = system: HOP-62 NSCLC
# [38] = system: TK-10 renal
# [39] = system: SK-OV-3 ovarian
# [40] = system: NCI-H522 lung
# [41] = system: MOLT-4 leukemia
# [42] = system: SN12C renal
# [43] = system: HCT-15 colon
# [44] = system: COLO 205 colon
# [45] = system: SF-539 CNS
# [46] = system: HCC-2998 colon
# [47] = system: HOP-92 NSCLC
# [48] = system: SF-268 CNS
# [49] = system: SNB-78 CNS
# [50] = system: OVCAR-5 ovarian
# [51] = system: SNB-75 CNS
# [52] = system: LXFL 529 NSCLC
# [53] = system: OVCAR-4 ovarian
# [54] = system: HT29 colon
# [55] = system: KM20L2 colon
# [56] = system: T-47D breast
# [57] = system: CAKI-1 renal
# [58] = system: A498 renal
# [59] = system: SR leukemia
# [60] = system: DU-145 prostate
# [61] = system: PC-3 prostate
# [62] = system: HS 578T breast
# [63] = system: MDA-N
# [64] = system: MDA-MB-435
# [65] = system: MDA-MB-231 breast
# [66] = system: BT-549 breast
# [67] = system: NCI/ADR-RES ovarian
smiles,measurement,setting,value
O=c1ccc2ccc(O)c3c4c(=O)ccc5ccc(O)c(c1c23)c54,TGI,[1],2.59 µM
same,TGI,[2],3.27 µM
same,TGI,[3],9.29 µM
same,TGI,[4],3.22 µM
same,TGI,[5],3.13 µM
same,TGI,[6],3.43 µM
same,TGI,[7],9.12 µM
same,TGI,[8],3.77 µM
same,TGI,[9],3.46 µM
same,TGI,[10],3.63 µM
same,TGI,[11],5.59 µM
same,TGI,[12],6.71 µM
same,TGI,[13],8.46 µM
same,TGI,[14],5.28 µM
same,TGI,[15],1.65 µM
same,TGI,[16],2.63 µM
same,TGI,[17],3.64 µM
same,TGI,[18],2.16 µM
same,TGI,[19],12.2 µM
same,TGI,[20],2.42 µM
same,TGI,[21],11.6 µM
same,TGI,[22],3.64 µM
same,TGI,[23],4.81 µM
same,TGI,[24],4.85 µM
same,TGI,[25],2.83 µM
same,TGI,[26],3.34 µM
same,TGI,[27],3.3 µM
same,TGI,[28],3.97 µM
same,TGI,[29],10.7 µM
same,TGI,[30],6.75 µM
same,TGI,[31],5.08 µM
same,TGI,[32],5.28 µM
same,TGI,[33],3.72 µM
same,TGI,[34],3.71 µM
same,TGI,[35],1.83 µM
same,TGI,[36],11.7 µM
same,TGI,[37],4.86 µM
same,TGI,[38],5.86 µM
same,TGI,[39],8.61 µM
same,TGI,[40],3.08 µM
same,TGI,[41],8.53 µM
same,TGI,[42],4.37 µM
same,TGI,[43],2.69 µM
same,TGI,[44],3.73 µM
same,TGI,[45],3.2 µM
CSC1(C)CC2C(CC1N1CCOCC1)C2(C)C (configuration not stated),TGI,[1],> 100 µM
same,TGI,[2],> 100 µM
same,TGI,[46],> 100 µM
same,TGI,[47],> 100 µM
same,TGI,[3],> 100 µM
same,TGI,[4],> 100 µM
same,TGI,[48],> 100 µM
same,TGI,[5],> 100 µM
same,TGI,[6],> 100 µM
same,TGI,[49],> 100 µM
same,TGI,[7],> 100 µM
same,TGI,[8],> 100 µM
same,TGI,[50],> 100 µM
same,TGI,[9],> 100 µM
same,TGI,[10],> 100 µM
same,TGI,[11],> 100 µM
same,TGI,[12],> 100 µM
same,TGI,[14],> 100 µM
same,TGI,[51],> 100 µM
same,TGI,[17],> 100 µM
same,TGI,[18],> 100 µM
same,TGI,[19],> 100 µM
same,TGI,[21],> 100 µM
same,TGI,[22],> 100 µM
same,TGI,[23],> 100 µM
same,TGI,[52],> 100 µM
same,TGI,[25],> 100 µM
same,TGI,[26],> 100 µM
same,TGI,[27],> 100 µM
same,TGI,[28],> 100 µM
same,TGI,[29],> 100 µM
same,TGI,[30],> 100 µM
same,TGI,[53],> 100 µM
same,TGI,[32],> 100 µM
same,TGI,[33],> 100 µM
same,TGI,[34],> 100 µM
same,TGI,[35],> 100 µM
same,TGI,[54],> 100 µM
same,TGI,[36],> 100 µM
same,TGI,[38],> 100 µM
same,TGI,[39],> 100 µM
same,TGI,[41],> 100 µM
same,TGI,[42],> 100 µM
same,TGI,[43],> 100 µM
same,TGI,[44],> 100 µM
same,TGI,[45],> 100 µM
O=c1[nH]c2ccccc2nc1CBr,TGI,[55],32.9 µM
same,TGI,[1],23.2 µM
same,TGI,[2],3.51 µM
same,TGI,[46],56.2 µM
same,TGI,[47],11.8 µM
same,TGI,[3],43.2 µM
same,TGI,[4],22.8 µM
same,TGI,[48],31.1 µM
same,TGI,[5],22.8 µM
same,TGI,[6],10.1 µM
same,TGI,[49],65.6 µM
same,TGI,[7],9.97 µM
same,TGI,[8],1.45 µM
same,TGI,[50],33.7 µM
same,TGI,[56],31.1 µM
same,TGI,[57],19.6 µM
same,TGI,[9],29.1 µM
same,TGI,[58],> 53.1 µM
same,TGI,[11],9.5 µM
same,TGI,[12],27.3 µM
same,TGI,[59],2.44 µM
same,TGI,[13],9.87 µM
same,TGI,[14],25.6 µM
same,TGI,[15],21.3 µM
same,TGI,[60],37.1 µM
same,TGI,[16],3.24 µM
same,TGI,[51],34.2 µM
same,TGI,[17],0.721 µM
same,TGI,[18],22.8 µM
same,TGI,[19],39.2 µM
same,TGI,[61],25.1 µM
same,TGI,[20],7.72 µM
same,TGI,[21],29 µM
same,TGI,[22],11.3 µM
same,TGI,[23],9.11 µM
same,TGI,[62],42 µM
same,TGI,[52],3.21 µM
same,TGI,[24],52 µM
same,TGI,[25],21.3 µM
same,TGI,[26],22.6 µM
same,TGI,[27],23.8 µM
same,TGI,[28],10.4 µM
same,TGI,[29],34.7 µM
same,TGI,[30],27 µM
same,TGI,[31],17.5 µM
same,TGI,[53],13.4 µM
same,TGI,[32],37.3 µM
same,TGI,[33],19 µM
same,TGI,[63],24.6 µM
same,TGI,[64],25.5 µM
same,TGI,[34],11.2 µM
same,TGI,[35],8.66 µM
same,TGI,[65],23.3 µM
same,TGI,[54],22.8 µM
same,TGI,[36],4.22 µM
same,TGI,[37],45 µM
same,TGI,[38],20.7 µM
same,TGI,[39],53.3 µM
same,TGI,[40],1.49 µM
same,TGI,[41],4.35 µM
same,TGI,[42],24.5 µM
same,TGI,[66],21.4 µM
same,TGI,[43],26.2 µM
same,TGI,[44],17.6 µM
same,TGI,[45],21.4 µM
same,TGI,[67],51.1 µM
